Assays:
[1] = biological target: Protein kinase C epsilon type (Homo sapiens) (UniProt Q02156); details: Compound concentration 1000.0 nM
[2] = biological target: Glutamate receptor ionotropic, NMDA 2A (Rattus norvegicus) (UniProt Q00959); assay: NMDAPHSI/R Eurofins-Panlabs selectivity data (BI); details: Compound concentration 10.0 uM
[3] = system: Leucine-rich repeat serine/threonine-protein kinase 2 (Homo sapiens), Q5S007 [G2019S]; assay: LRRK2_G2019S Invitrogen selectivity data (BI); details: Compound concentration 3.0 uM
[4] = system: Epidermal growth factor receptor (Homo sapiens), P00533 [UNDEFINED MUTATION]; assay: EGFRT790L858 Invitrogen selectivity data (BI); details: Compound concentration 3.0 uM
[5] = biological target: xanthine dehydrogenase/oxidase (Bos taurus, UniProt P80457); assay: SUPOXXANOXID Cerep selectivity data (BI); design: mode of action inhibitor; details: cattle, xanthine oxidase enzyme assay; compound concentration 20 uM; read-out: % Ctrl
[6] = biological target: T1, cGMP-dependent protein kinase 2 (Homo sapiens) (UniProt Q13237); assay: PRKG2 Invitrogen selectivity data (BI); details: Compound concentration 3.0 uM
T1 sequence (whole entry): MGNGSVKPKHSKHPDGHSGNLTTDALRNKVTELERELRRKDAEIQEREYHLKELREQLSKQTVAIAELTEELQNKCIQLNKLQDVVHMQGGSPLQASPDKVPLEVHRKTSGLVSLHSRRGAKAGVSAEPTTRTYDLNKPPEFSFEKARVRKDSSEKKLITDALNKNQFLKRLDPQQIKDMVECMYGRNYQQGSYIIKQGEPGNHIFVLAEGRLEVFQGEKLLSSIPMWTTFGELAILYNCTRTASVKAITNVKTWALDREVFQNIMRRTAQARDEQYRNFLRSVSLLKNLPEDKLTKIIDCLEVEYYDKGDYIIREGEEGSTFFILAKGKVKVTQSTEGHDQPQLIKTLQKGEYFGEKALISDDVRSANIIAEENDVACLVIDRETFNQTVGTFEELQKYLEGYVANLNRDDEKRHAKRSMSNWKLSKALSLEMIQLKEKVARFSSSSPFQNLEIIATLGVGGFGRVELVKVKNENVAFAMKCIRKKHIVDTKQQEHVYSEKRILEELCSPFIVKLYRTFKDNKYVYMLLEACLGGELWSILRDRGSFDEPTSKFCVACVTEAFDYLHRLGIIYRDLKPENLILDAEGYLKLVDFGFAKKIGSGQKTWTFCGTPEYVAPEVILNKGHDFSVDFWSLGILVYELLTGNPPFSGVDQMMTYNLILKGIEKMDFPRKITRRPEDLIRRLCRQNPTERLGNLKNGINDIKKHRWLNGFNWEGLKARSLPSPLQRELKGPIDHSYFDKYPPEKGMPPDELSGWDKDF

[7] = biological target: T2, Alpha-2A adrenergic receptor (Homo sapiens) (UniProt P08913); assay: ALPHA2A/HU Cerep selectivity data (BI); details: Compound concentration 20.0 uM
T2 sequence (whole entry): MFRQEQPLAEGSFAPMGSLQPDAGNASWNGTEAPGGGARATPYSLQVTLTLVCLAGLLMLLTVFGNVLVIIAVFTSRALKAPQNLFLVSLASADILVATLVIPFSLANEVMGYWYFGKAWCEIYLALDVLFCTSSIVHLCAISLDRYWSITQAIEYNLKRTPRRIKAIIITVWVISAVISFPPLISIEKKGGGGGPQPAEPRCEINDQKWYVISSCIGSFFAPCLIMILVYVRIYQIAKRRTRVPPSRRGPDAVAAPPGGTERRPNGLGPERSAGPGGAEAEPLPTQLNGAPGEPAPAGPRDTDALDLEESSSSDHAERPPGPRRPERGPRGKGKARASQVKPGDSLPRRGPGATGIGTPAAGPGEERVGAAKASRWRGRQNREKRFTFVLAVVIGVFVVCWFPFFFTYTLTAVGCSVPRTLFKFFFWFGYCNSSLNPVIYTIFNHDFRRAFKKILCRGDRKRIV

[8] = biological target: ATP-sensitive inward rectifier potassium channel 1 isoform X1 (Mesocricetus auratus) (UniProt A0A1U8CU73); assay: K+/KATP/HA Eurofins-Panlabs selectivity data (BI); details: Compound concentration 10.0 uM
[9] = biological target: Casein kinase I isoform alpha (Homo sapiens) (UniProt P48729); assay: CSNK1A1 Invitrogen selectivity data (BI); details: Compound concentration 3.0 uM
[10] = biological target: Fibroblast growth factor receptor 2 (Homo sapiens) (UniProt P21802); assay: FGFR2 Invitrogen selectivity data (BI); details: Compound concentration 3.0 uM
[11] = biological target: Serine/threonine-protein kinase mTOR (Homo sapiens) (UniProt P42345); assay: FRAP1 (MTOR) Invitrogen selectivity data (BI); details: Compound concentration 3.0 uM
[12] = biological target: Fibroblast growth factor receptor 4 (Homo sapiens) (UniProt P22455); assay: FGFR4 Invitrogen selectivity data (BI); details: Compound concentration 3.0 uM
[13] = biological target: CDK9/Cyclin K (Homo sapiens) (UniProt P50750+O75909); assay: CDK9_CYCLINK Invitrogen selectivity data (BI); type: protein-complex assay; details: Compound concentration 3.0 uM
[14] = biological target: Calcium/calmodulin-dependent protein kinase type II subunit alpha (Homo sapiens) (UniProt Q9UQM7); assay: CAMK2A Invitrogen selectivity data (BI); details: Compound concentration 3.0 uM
[15] = biological target: T3, Cytoplasmic tyrosine-protein kinase BMX (Homo sapiens) (UniProt P51813); assay: BMX Invitrogen selectivity data (BI); details: Compound concentration 3.0 uM
T3 sequence (whole entry): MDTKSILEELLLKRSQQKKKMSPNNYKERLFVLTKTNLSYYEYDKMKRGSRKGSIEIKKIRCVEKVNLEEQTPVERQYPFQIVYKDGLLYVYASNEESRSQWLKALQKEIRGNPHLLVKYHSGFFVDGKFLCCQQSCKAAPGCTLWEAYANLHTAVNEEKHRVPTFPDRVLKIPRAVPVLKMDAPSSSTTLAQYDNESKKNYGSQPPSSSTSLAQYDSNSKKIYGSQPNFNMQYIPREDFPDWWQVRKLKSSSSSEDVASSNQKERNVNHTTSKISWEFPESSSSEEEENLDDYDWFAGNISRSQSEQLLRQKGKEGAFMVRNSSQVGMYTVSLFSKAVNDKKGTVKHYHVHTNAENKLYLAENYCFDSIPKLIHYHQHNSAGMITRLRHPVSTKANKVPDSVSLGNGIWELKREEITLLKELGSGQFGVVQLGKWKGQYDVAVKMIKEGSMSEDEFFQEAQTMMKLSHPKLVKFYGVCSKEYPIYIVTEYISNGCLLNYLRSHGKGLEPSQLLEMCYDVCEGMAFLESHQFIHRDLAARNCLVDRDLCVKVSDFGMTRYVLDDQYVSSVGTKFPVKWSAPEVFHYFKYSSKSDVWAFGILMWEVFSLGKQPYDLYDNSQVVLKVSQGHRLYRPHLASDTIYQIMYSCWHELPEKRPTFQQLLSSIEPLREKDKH

[16] = biological target: RAF proto-oncogene serine/threonine-protein kinase (Homo sapiens) (UniProt P04049); assay: RAF1_Y_D Invitrogen selectivity data (BI); details: Compound concentration 3.0 uM
[17] = biological target: Bombesin receptor subtype-3 (Homo sapiens) (UniProt P32247); assay: BB3H_AGON Cerep selectivity data (BI); details: filed as agonist, Compound concentration 20.0 uM
[18] = biological target: 5-hydroxytryptamine receptor 1B (Homo sapiens) (UniProt P28222); details: Compound concentration 10.0 uM
5-hydroxytryptamine receptor 1B (Homo sapiens), sequence (P28222 whole entry): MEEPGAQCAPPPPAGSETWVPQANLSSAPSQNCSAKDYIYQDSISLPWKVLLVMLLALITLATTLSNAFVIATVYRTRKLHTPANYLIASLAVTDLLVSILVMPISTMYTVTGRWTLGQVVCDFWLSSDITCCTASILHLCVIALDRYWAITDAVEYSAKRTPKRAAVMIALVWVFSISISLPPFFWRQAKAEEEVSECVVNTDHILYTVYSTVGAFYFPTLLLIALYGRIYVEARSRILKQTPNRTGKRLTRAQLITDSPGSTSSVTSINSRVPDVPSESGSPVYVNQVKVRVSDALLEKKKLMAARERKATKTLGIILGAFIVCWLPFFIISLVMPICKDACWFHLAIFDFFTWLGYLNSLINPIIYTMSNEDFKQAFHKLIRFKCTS

Leucine-rich repeat serine/threonine-protein kinase 2 (Homo sapiens), Q5S007 [G2019S], sequence (Q5S007 whole entry G2019S): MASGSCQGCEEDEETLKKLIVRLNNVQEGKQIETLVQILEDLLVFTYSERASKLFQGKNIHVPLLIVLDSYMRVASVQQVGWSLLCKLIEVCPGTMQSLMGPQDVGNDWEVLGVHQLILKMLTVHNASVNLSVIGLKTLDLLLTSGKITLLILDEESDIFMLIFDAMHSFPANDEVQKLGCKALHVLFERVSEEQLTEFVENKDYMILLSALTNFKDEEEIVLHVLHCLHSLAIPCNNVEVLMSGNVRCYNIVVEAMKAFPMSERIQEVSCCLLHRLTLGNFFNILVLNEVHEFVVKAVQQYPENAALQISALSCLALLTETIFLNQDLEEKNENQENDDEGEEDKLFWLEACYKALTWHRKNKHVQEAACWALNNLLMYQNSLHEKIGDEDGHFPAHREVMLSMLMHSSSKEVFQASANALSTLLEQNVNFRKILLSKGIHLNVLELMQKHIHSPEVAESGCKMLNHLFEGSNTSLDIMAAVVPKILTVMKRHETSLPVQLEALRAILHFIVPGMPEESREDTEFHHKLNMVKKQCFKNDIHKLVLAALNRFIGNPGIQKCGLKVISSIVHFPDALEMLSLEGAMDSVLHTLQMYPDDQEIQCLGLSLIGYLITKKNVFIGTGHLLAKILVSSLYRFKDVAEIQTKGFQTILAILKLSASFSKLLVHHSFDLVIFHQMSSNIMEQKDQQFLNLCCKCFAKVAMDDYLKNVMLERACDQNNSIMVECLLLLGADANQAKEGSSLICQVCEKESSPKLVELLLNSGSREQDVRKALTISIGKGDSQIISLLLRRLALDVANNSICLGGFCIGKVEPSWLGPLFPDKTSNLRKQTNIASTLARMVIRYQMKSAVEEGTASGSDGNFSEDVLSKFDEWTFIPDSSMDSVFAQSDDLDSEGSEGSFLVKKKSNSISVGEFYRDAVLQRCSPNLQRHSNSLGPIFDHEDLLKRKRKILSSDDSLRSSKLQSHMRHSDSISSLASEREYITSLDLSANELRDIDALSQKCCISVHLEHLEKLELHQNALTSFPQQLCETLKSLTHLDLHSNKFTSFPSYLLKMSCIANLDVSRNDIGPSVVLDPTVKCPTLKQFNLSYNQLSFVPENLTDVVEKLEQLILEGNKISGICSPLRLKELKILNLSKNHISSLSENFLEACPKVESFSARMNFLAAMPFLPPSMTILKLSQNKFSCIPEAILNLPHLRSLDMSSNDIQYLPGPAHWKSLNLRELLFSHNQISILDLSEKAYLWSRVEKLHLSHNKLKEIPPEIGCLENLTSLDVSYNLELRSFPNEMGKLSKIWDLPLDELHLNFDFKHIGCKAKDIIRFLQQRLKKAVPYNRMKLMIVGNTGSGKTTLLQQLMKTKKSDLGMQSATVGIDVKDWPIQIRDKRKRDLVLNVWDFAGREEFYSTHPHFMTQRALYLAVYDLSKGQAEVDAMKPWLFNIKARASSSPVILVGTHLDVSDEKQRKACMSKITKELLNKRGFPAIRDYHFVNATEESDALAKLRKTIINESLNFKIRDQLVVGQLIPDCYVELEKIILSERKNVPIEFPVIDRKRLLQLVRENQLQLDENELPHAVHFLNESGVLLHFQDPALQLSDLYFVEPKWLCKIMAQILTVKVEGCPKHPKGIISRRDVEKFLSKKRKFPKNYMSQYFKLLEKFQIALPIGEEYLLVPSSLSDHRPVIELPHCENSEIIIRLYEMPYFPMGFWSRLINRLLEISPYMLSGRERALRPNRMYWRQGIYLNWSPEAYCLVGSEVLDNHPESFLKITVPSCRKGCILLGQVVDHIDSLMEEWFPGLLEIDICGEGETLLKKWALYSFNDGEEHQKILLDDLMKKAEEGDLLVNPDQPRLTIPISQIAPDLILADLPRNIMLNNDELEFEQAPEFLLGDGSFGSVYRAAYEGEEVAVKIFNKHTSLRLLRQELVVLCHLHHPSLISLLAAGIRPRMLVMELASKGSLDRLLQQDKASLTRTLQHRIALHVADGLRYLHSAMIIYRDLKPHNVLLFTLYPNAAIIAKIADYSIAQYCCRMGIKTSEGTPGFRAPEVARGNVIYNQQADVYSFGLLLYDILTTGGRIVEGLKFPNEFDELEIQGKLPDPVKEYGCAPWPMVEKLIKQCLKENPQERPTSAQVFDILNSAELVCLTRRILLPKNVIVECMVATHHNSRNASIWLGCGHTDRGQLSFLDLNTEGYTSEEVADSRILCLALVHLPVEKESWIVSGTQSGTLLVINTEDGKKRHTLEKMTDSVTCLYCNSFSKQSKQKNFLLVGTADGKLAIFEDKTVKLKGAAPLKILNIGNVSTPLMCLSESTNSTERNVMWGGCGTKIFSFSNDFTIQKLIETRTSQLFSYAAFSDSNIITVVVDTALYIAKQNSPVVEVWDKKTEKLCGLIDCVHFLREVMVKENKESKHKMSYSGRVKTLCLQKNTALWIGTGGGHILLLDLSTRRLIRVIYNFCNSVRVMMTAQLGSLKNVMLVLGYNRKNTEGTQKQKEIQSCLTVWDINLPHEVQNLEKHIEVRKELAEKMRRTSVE
Epidermal growth factor receptor (Homo sapiens), P00533 [UNDEFINED MUTATION], sequence (P00533 whole entry, looked up, change not shown): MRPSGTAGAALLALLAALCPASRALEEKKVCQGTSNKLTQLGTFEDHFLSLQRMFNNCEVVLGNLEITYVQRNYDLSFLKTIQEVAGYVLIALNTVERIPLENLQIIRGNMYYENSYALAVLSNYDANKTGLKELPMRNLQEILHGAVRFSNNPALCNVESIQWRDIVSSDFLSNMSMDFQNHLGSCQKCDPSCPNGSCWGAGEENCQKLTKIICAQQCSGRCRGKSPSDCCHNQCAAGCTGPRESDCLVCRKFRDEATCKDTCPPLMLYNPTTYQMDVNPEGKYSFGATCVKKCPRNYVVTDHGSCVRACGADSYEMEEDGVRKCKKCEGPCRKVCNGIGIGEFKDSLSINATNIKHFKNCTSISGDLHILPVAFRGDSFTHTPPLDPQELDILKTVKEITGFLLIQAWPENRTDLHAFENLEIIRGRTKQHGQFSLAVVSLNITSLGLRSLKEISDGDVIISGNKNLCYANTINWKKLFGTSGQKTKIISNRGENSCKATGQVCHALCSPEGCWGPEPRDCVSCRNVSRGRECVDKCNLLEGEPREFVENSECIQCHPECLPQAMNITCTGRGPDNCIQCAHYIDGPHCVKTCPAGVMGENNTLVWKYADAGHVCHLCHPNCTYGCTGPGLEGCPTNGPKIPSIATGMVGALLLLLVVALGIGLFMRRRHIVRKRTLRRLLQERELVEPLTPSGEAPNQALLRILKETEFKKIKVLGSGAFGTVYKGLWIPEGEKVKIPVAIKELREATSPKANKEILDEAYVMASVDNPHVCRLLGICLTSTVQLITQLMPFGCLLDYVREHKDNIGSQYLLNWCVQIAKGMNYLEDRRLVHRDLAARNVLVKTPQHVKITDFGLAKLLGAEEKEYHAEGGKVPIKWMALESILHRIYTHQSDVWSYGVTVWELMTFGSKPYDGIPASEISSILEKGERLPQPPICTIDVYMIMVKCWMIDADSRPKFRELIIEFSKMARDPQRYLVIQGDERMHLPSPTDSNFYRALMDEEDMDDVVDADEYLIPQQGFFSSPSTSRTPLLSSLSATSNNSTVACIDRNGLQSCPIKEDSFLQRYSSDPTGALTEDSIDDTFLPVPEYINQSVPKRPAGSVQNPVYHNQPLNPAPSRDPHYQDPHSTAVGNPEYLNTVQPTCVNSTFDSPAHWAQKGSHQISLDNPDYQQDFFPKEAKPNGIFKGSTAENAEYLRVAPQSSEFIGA
Calcium/calmodulin-dependent protein kinase type II subunit alpha (Homo sapiens), sequence (Q9UQM7 whole entry): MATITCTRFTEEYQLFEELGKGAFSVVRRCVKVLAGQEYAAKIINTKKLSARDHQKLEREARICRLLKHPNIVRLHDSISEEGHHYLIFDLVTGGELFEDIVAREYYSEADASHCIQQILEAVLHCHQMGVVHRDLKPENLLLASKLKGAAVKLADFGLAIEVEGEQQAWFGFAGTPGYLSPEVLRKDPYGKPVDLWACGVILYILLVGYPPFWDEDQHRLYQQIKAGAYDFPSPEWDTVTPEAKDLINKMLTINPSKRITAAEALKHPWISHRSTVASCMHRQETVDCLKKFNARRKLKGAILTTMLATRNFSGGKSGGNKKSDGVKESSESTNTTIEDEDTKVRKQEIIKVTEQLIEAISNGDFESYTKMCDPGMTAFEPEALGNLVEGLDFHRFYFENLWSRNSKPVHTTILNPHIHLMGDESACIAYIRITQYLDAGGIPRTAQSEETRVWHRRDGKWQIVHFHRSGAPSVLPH
Casein kinase I isoform alpha (Homo sapiens), sequence (P48729 2-337 limits assumed): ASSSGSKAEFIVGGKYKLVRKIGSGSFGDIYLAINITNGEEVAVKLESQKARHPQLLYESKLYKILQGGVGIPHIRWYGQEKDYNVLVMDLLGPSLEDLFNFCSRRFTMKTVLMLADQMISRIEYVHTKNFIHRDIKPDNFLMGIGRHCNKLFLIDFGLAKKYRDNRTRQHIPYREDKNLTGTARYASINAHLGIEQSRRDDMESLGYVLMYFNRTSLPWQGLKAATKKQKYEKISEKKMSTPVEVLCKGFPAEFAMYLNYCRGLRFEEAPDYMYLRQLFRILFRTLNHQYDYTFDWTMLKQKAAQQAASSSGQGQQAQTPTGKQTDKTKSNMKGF

SMILES	residual activity [1] [%]	residual activity [2] [%]	residual activity [3] [%]	residual activity [4] [%]	activity at 20 µM [5]	residual activity [6] [%]	residual activity [7] [%]	residual activity [8] [%]	residual activity [9] [%]	residual activity [10] [%]	residual activity [11] [%]	residual activity [12] [%]	residual activity [13] [%]	residual activity [14] [%]	residual activity [15] [%]	residual activity [16] [%]	residual activity [17] [%]	inhibition [18] [%]
CN(C)C(=O)Cn1cc(-c2nc(C3(c4ccc(-c5cnc(N)nc5)cc4)CC3)no2)cn1 [BI 0153]	90	–	–	–	–	–	–	–	–	–	–	–	–	–	–	–	–	–
CN(C)C(=O)Cn1cc(-c2nc([C@@](C)(c3ccc(-c4cnc(N)nc4)cc3)C3CC3)no2)cn1 [BI 665915]	–	111	89	101	85% (not active)	92.5	101	97	96	89	104	96.5	96	103	95	98	108	-3.77

Source: ChEMBL document CHEMBL4507276 (2021)
